From ChEMBL document CHEMBL3885881, “DrugMatrix”

Species: Rattus norvegicus
Experiment: DrugMatrix - Regimen: Daily Repeat
Format: toxicity, organism-based, Sprague-Dawley
Parameters: regimen Daily Repeat, gender Male, age 6-8 weeks
Conditions: in vivo, po, route oral GAVAGE, […]; for ABSOLUTE BASOPHIL / ABSOLUTE EOSINOPHIL / ABSOLUTE LYMPHOCYTE / ABSOLUTE MONOCYTE / ABSOLUTE SEGMENTED NEUTROPHIL / BASOPHIL / EOSINOPHIL / ERYTHROCYTE COUNT / HEMATOCRIT / HEMOGLOBIN / LEUKOCYTE COUNT / LYMPHOCYTE / MEAN CORPUSCULAR HEMOGLOBIN / MEAN CORPUSCULAR HEMOGLOBIN CONCENTRATION / MEAN CORPUSCULAR VOLUME / MONOCYTE / NEUTROPHIL / NUCLEATED RED BLOOD CELLS / PLATELET COUNT: tissue Blood; for ALANINE AMINOTRANSFERASE / ALBUMIN / ALKALINE PHOSPHATASE / ASPARTATE AMINOTRANSFERASE / BLOOD UREA NITROGEN / CARBON DIOXIDE / CHLORIDE / CHOLESTEROL / CREATINE PHOSPHOKINASE / CREATININE / GLUCOSE / LACTATE DEHYDROGENASE / LIPASE / PHOSPHORUS / POTASSIUM / SODIUM / TOTAL BILIRUBIN / TOTAL PROTEIN / URIC ACID: tissue Plasma
[1] = 2000 mg/kg, 72 h, dose level High, time 3 day
[2] = 2000 mg/kg, 120 h, dose level High, time 5 day
[3] = 72 h, dose 0.33 mg/Kg, dose level Low, time 3 day
[4] = 120 h, dose 0.33 mg/Kg, dose level Low, time 5 day

SMILES: COc1ccc2[nH]cc(CCNC(C)=O)c2c1 [MELATONIN]
- ABSOLUTE BASOPHIL [1]: 0 CELLS/uL
- ABSOLUTE EOSINOPHIL [1]: 23.67 CELLS/uL
- ABSOLUTE LYMPHOCYTE [1]: 9249.33 CELLS/uL
- ABSOLUTE MONOCYTE [1]: 250.67 CELLS/uL
- ABSOLUTE SEGMENTED NEUTROPHIL [1]: 1876.33 CELLS/uL
- BASOPHIL [1]: 0%
- EOSINOPHIL [1]: 0.33%
- ERYTHROCYTE COUNT [1]: 5.38 x10E6/uL
- HEMATOCRIT [1]: 32.93%
- HEMOGLOBIN [1]: 13.5 G/DL
- LEUKOCYTE COUNT [1]: 11.4 x10E3/uL
- LYMPHOCYTE [1]: 82.33%
- MEAN CORPUSCULAR HEMOGLOBIN [1]: 25.17 pg
- MEAN CORPUSCULAR HEMOGLOBIN CONCENTRATION [1]: 41.03 G/DL
- MEAN CORPUSCULAR VOLUME [1]: 61.27 fL
- MONOCYTE [1]: 2%
- NEUTROPHIL [1]: 15.33%
- NUCLEATED RED BLOOD CELLS [1]: 0 /100WBC
- PLATELET COUNT [1]: 1209.67 x10E3/uL
- ALANINE AMINOTRANSFERASE [1]: 115 u/L
- ALBUMIN [1]: 3.3 G/DL
- ALKALINE PHOSPHATASE [1]: 505.67 u/L
- ASPARTATE AMINOTRANSFERASE [1]: 128.33 u/L
- BLOOD UREA NITROGEN [1]: 15 mg/dL
- CARBON DIOXIDE [1]: 25.67 mmol/L
- CHLORIDE [1]: 100.33 MEQ/L
- CHOLESTEROL [1]: 84 mg/dL
- CREATINE PHOSPHOKINASE [1]: 757.33 u/L
- CREATININE [1]: 0.38 mg/dL
- GLUCOSE [1]: 155 mg/dL
- LACTATE DEHYDROGENASE [1]: 369.33 u/L
- LIPASE [1]: 11.67 u/L
- PHOSPHORUS [1]: 13.07 mg/dL
- POTASSIUM [1]: 6.08 MEQ/L
- SODIUM [1]: 140.4 MEQ/L
- TOTAL BILIRUBIN [1]: 0.5 mg/dL
- TOTAL PROTEIN [1]: 4.6 G/DL
- URIC ACID [1]: 1.43 mg/dL
- ABSOLUTE BASOPHIL [2]: 0 CELLS/uL
- ABSOLUTE EOSINOPHIL [2]: 0 CELLS/uL
- ABSOLUTE LYMPHOCYTE [2]: 18071 CELLS/uL
- ABSOLUTE MONOCYTE [2]: 251 CELLS/uL
- ABSOLUTE SEGMENTED NEUTROPHIL [2]: 1211.33 CELLS/uL
- BASOPHIL [2]: 0%
- EOSINOPHIL [2]: 0%
- ERYTHROCYTE COUNT [2]: 6.07 x10E6/uL
- HEMATOCRIT [2]: 38.13%
- HEMOGLOBIN [2]: 15.13 G/DL
- LEUKOCYTE COUNT [2]: 19.53 x10E3/uL
- LYMPHOCYTE [2]: 92.67%
- MEAN CORPUSCULAR HEMOGLOBIN [2]: 24.9 pg
- MEAN CORPUSCULAR HEMOGLOBIN CONCENTRATION [2]: 39.7 G/DL
- MEAN CORPUSCULAR VOLUME [2]: 62.77 fL
- MONOCYTE [2]: 1.33%
- NEUTROPHIL [2]: 6%
- NUCLEATED RED BLOOD CELLS [2]: 0 /100WBC
- PLATELET COUNT [2]: 1278.33 x10E3/uL
- ALANINE AMINOTRANSFERASE [2]: 124.67 u/L
- ALBUMIN [2]: 3.73 G/DL
- ALKALINE PHOSPHATASE [2]: 553.33 u/L
- ASPARTATE AMINOTRANSFERASE [2]: 154.67 u/L
- BLOOD UREA NITROGEN [2]: 19 mg/dL
- CARBON DIOXIDE [2]: 32 mmol/L
- CHLORIDE [2]: 100.33 MEQ/L
- CHOLESTEROL [2]: 99 mg/dL
- CREATINE PHOSPHOKINASE [2]: 788.67 u/L
- CREATININE [2]: 0.24 mg/dL
- GLUCOSE [2]: 136 mg/dL
- LACTATE DEHYDROGENASE [2]: 320.67 u/L
- LIPASE [2]: 12.33 u/L
- PHOSPHORUS [2]: 11.03 mg/dL
- POTASSIUM [2]: 6.53 MEQ/L
- SODIUM [2]: 142.13 MEQ/L
- TOTAL BILIRUBIN [2]: 0.4 mg/dL
- TOTAL PROTEIN [2]: 5.07 G/DL
- URIC ACID [2]: 1.2 mg/dL
- ABSOLUTE BASOPHIL [3]: 0 CELLS/uL
- ABSOLUTE EOSINOPHIL [3]: 0 CELLS/uL
- ABSOLUTE LYMPHOCYTE [3]: 12175.67 CELLS/uL
- ABSOLUTE MONOCYTE [3]: 180.67 CELLS/uL
- ABSOLUTE SEGMENTED NEUTROPHIL [3]: 1643.67 CELLS/uL
- BASOPHIL [3]: 0%
- EOSINOPHIL [3]: 0%
- ERYTHROCYTE COUNT [3]: 5.39 x10E6/uL
- HEMATOCRIT [3]: 34.47%
- HEMOGLOBIN [3]: 13.5 G/DL
- LEUKOCYTE COUNT [3]: 14 x10E3/uL
- LYMPHOCYTE [3]: 87.33%
- MEAN CORPUSCULAR HEMOGLOBIN [3]: 25.1 pg
- MEAN CORPUSCULAR HEMOGLOBIN CONCENTRATION [3]: 39.17 G/DL
- MEAN CORPUSCULAR VOLUME [3]: 64.03 fL
- MONOCYTE [3]: 1.33%
- NEUTROPHIL [3]: 11.33%
- NUCLEATED RED BLOOD CELLS [3]: 0 /100WBC
- PLATELET COUNT [3]: 1125.33 x10E3/uL
- ALANINE AMINOTRANSFERASE [3]: 65 u/L
- ALBUMIN [3]: 4 G/DL
- ALKALINE PHOSPHATASE [3]: 447.33 u/L
- ASPARTATE AMINOTRANSFERASE [3]: 76.67 u/L
- BLOOD UREA NITROGEN [3]: 13.33 mg/dL
- CARBON DIOXIDE [3]: 31 mmol/L
- CHLORIDE [3]: 102 MEQ/L
- CHOLESTEROL [3]: 74.33 mg/dL
- CREATINE PHOSPHOKINASE [3]: 191.33 u/L
- CREATININE [3]: 0.26 mg/dL
- GLUCOSE [3]: 163.33 mg/dL
- LACTATE DEHYDROGENASE [3]: 156.67 u/L
- LIPASE [3]: 10.33 u/L
- PHOSPHORUS [3]: 11.6 mg/dL
- POTASSIUM [3]: 6.23 MEQ/L
- SODIUM [3]: 142.1 MEQ/L
- TOTAL BILIRUBIN [3]: 0.2 mg/dL
- TOTAL PROTEIN [3]: 5.03 G/DL
- URIC ACID [3]: 1.47 mg/dL
- ABSOLUTE BASOPHIL [4]: 0 CELLS/uL
- ABSOLUTE EOSINOPHIL [4]: 0 CELLS/uL
- ABSOLUTE LYMPHOCYTE [4]: 12476.67 CELLS/uL
- ABSOLUTE MONOCYTE [4]: 229.67 CELLS/uL
- ABSOLUTE SEGMENTED NEUTROPHIL [4]: 1393.67 CELLS/uL
- BASOPHIL [4]: 0%
- EOSINOPHIL [4]: 0%
- ERYTHROCYTE COUNT [4]: 5.39 x10E6/uL
- HEMATOCRIT [4]: 32.43%
- HEMOGLOBIN [4]: 13.13 G/DL
- LEUKOCYTE COUNT [4]: 14.1 x10E3/uL
- LYMPHOCYTE [4]: 88.33%
- MEAN CORPUSCULAR HEMOGLOBIN [4]: 24.4 pg
- MEAN CORPUSCULAR HEMOGLOBIN CONCENTRATION [4]: 40.53 G/DL
- MEAN CORPUSCULAR VOLUME [4]: 60.23 fL
- MONOCYTE [4]: 1.67%
- NEUTROPHIL [4]: 10%
- NUCLEATED RED BLOOD CELLS [4]: 0 /100WBC
- PLATELET COUNT [4]: 1131.67 x10E3/uL
- ALANINE AMINOTRANSFERASE [4]: 56.33 u/L
- ALBUMIN [4]: 4.1 G/DL
- ALKALINE PHOSPHATASE [4]: 363.67 u/L
- ASPARTATE AMINOTRANSFERASE [4]: 76 u/L
- BLOOD UREA NITROGEN [4]: 16 mg/dL
- CARBON DIOXIDE [4]: 30 mmol/L
- CHLORIDE [4]: 102 MEQ/L
- CHOLESTEROL [4]: 64 mg/dL
- CREATINE PHOSPHOKINASE [4]: 170.33 u/L
- CREATININE [4]: 0.24 mg/dL
- GLUCOSE [4]: 163 mg/dL
- LACTATE DEHYDROGENASE [4]: 89.33 u/L
- LIPASE [4]: 10.67 u/L
- PHOSPHORUS [4]: 10.7 mg/dL
- POTASSIUM [4]: 5.96 MEQ/L
- SODIUM [4]: 142.07 MEQ/L
- TOTAL BILIRUBIN [4]: 0.17 mg/dL
- TOTAL PROTEIN [4]: 5.53 G/DL
- URIC ACID [4]: 1.3 mg/dL
